{
  "source": "patent US10632202B2",
  "about": "“Preservative containing compositions” (JOHNSON & JOHNSON CONSUMER INC., priority 2016, dated 2020)",
  "data": [
    {"test_system": "fungi", "assay": "Observed contribution of nutrients to antifungal activity", "assay_type": "cell-based", "conditions": "nutrient of the antimicrobial mixture", "values": [
      {"smiles": "O=C(O)CC(O)(CC(=O)O)C(=O)O", "note": "[citrate]", "contribution to the antifungal activity of the antimicrobial mixture": "contribute minimally"},
      {"smiles": "CC(O)C(=O)O", "note": "(stereo not shown) [lactate]", "contribution to the antifungal activity of the antimicrobial mixture": "follows the glucose with regard to the significance of its contribution"},
      {"smiles": "NCC(=O)O", "note": "[glycine]", "contribution to the antifungal activity of the antimicrobial mixture": "contribute minimally"},
      {"smiles": "O=C1O[C@H]([C@@H](O)CO)C(O)=C1O", "note": "[ascorbic acid]", "contribution to the antifungal activity of the antimicrobial mixture": "contribute minimally"}
    ]}
  ]
}
